{"source": "patent US20230407304A1", "about": "“USE OF MICRORNA INHIBITION TO PREVENT AND TREAT OSTEOARTHRITIS AND OTHER INFLAMMATORY DISEASES” (VIRGINIA COMMONWEALTH UNIVERSITY, priority 2020, published 2023)", "key": {"[1]": {"tested_on": "rat articular chondrocytes (rArCs)", "assay": "miR mimic or inhibitor transfection of rArCs with or without TNF-α stimulation", "assay_type": "cell-based", "protocol": "FIGS. 7A-7F show assessment of miR-122 and miR-451 transfection or inhibition on TNF-α stimulated rat articular chondrocytes. rArCs were transfected at 60% confluence with miR-122, miR-451, miR-122-inhibitor (122-Inh), miR-451 inhibitor (451-Inh), or an empty vehicle (Lipo) for 24 hours followed by 24 hours with or without 10 ng/mL TNF-α stimulation. (FIG. 7A, 7D) Total DNA was measured from the cell monolayer and (FIG. 7B, 7E) MMP-13 and (FIG. 7C, 7F) PGE2 proteins were measured from the conditioned media. Groups not sharing a letter (A, B or C over bar) are statistically significant using an alpha=0.05.\nRat articular chondrocytes (rArCs) were isolated using a previously established protocol (see Scott, supra). Briefly, rArCs were isolated from femoral condyles and tibial plateaus from 100-125 g male Sprague Dawley rats. Cartilage was sterilely sliced from the articular surfaces using a surgical blade and placed in Dulbecco's modification of Eagle's medium with 1 g/L glucose, 50 U/mL penicillin and streptomycin (pen-strep) (DMEM). After removing DMEM, cartilage was incubated with 0.05% trypsin (20 mins, 37° C.), rinsed with DMEM (50 U/mL pen-strep, 20 mins, 37° C.), and then digested with sterile-filtered 0.03% collagenase type II solution (Worthington Biochemical, Lakewood, NJ) in Hank's balanced salt solution (16 hrs, 37° C.). Digestion was quenched with an equal volume of DMEM containing 10% fetal bovine serum (FBS) and 50 U/mL pen-strep, strained through a 40 μm strainer (Greiner Bio-one, North Carolina), spun down at 500×g for 10 mins and plated at a seeding density of 15,000 cells/cm^2. These cells are at passage 0. All experiments used cells at passage 1.\nrArCs were plated at a seeding density of 15,000 cells/cm^2 and fed with DMEM supplemented with 10% FBS and 50 U/mL pen-strep. Media were changed 24 hours after plating and then every 48 hours. After treatments described below, conditioned media were collected, centrifuged at 1,000×g for 10 mins to remove cellular debris, aliquoted, and stored at −80° C. until assayed. Cell monolayers were rinsed twice with 1 mL of 1×PBS, lysed in 500 μL of 0.05% Triton X-100, and frozen for later DNA analysis. MMP-13 (ANASpec, Fremont, CA) and PGE2 (R&D Systems) were measured in the conditioned media by a microplate reader at ex/em 490 nm/520 nm, and 450 nm absorbance, respectively, in accordance with the manufacturer's directions. Data were normalized to the DNA content of the cell monolayer. Cell layers were thawed, and mechanically lysed by ultrasonication (40V, 10s/well) (VCX-120; Vibra-cell, Newtown, CT) and DNA was measured using QuantiFluor dsDNE system kit (Promega, Madson, WI) and quantified on a fluorescence plate reader at ex/em 504 nm/531 nm. […]"}, "articular chondrocytes": {"tested_on": "articular chondrocytes", "assay": "miR-122 / miR-451 transfection of articular chondrocytes in presence and absence of IL-1β", "assay_type": "cell-based, rat", "conditions": "miR transfection plus IL-1β stimulation", "text": "The following Examples with these microRNAs established their functions in articular chondrocytes in the presence and absence of the inflammatory cytokine IL-1β. Since IL-1β signaling is a major contributor of OA, a well-established model of creating an osteoarthritic phenotype in vitro is to stimulate cell cultures with this cytokine. This study first established that both these microRNAs were elevated in OA in the bilateral ACLT model.\nThe miR-451 miR (SEQ ID NO:10) was originally chosen as a control miR but it had surprising and very specific functions. […] A series of transfections and inhibition experiments with these microRNAs confirmed that these changes were due to the microRNAs themselves."}, "chondrocytes": {"tested_on": "chondrocytes", "conditions": "in vitro studies (Scott; Tang et al.); cited from earlier work"}, "[2]": {"tested_on": "resting zone and growth zone chondrocytes", "assay": "microRNA transfection of costochondral resting zone and growth zone chondrocytes", "conditions": "preliminary testing"}}}
{"substance": "miR-451: mirVana miRNA mimic rno-miR-451-5p; AAACCGUUACCAUUACUGAGUU (AAACCGUUACCAUUACUGAGUU; listed as RNA, chemistry not given here)", "values": [{"measurement": "change of total DNA on TNF-α treatment in transfected cells", "setting": "[1]; 14.5 nM mimic 24 hours, then 10 ng/mL TNF-α 24 hours", "result": "did not change total DNA"}, {"measurement": "total DNA after mimic transfection", "setting": "[1]; 14.5 nM mimic, 24 hours, vs Lipo control", "result": "reduced total DNA compared to all groups"}, {"measurement": "IL-1β-stimulated MMP-13", "setting": "articular chondrocytes", "result": "exacerbated production in MMP-13 and PGE2"}, {"measurement": "IL-1β-stimulated PGE2", "setting": "articular chondrocytes", "result": "exacerbated production in MMP-13 and PGE2"}, {"measurement": "growth factor VEGF", "setting": "articular chondrocytes", "result": "decreased the growth factor VEGF"}, {"measurement": "inflammatory mediators, cytokines, chemokines (IL-1α, IL-2, IL-4, IL-6, GM-CSF, MIP-1A; RANTES for miR-122)", "setting": "articular chondrocytes", "result": "increased the inflammatory mediators, cytokines, chemokines"}, {"measurement": "apoptosis and cell viability in chondrocytes", "setting": "chondrocytes", "result": "does not induce apoptosis or compromise cell viability"}, {"measurement": "proliferation", "setting": "[2]; transfected costochondral resting zone and growth zone chondrocytes", "result": "decrease in total DNA and proliferation"}, {"measurement": "total DNA", "setting": "[2]; transfected growth plate chondrocytes", "result": "decrease in total DNA and proliferation"}]}
